The values that follow come from patent US20060275356A1, “Pharmaceutical compositions for treating or preventing coronary artery disease” (priority 2005, published 2006).

The subject of series [1] is plasma apoA-I levels. Nature of the series: Plasma apoA-I levels after two weeks of PI plus absorption enhancer (western immunoblotting). Type of series: in vivo, Sprague Dawley rats. Particulars: 60 mg/kg PI combined with the absorption enhancer (dose per Table 1), rats. The protocol:
Individual absorption enhancers were also incorporated into the 2 g bolus dose (Table 1). […] All animals were maintained on this regime for two weeks, at which time animals were euthanized and blood samples collected by cardiac puncture. Blood samples were collected into EDTA coated tubes, placed on ice, followed by centrifugation at 1500×g for 15 min at 4° C. to separate plasma. Plasma samples were stored at −20° C. until analysis of apoA-I could be performed. Plasma apoA-I levels were determined by western immunoblotting.
(In general: Immunoblotting shows a protein as a band on a membrane.)

For series [2], the system named is HepG2 cells. The following applies: cited from earlier work.
Series [3] concerns plasma HDL-C and apoA-I. Nature of the series: Oral PI in conventional formulations: increase in plasma HDL-C and apoA-I. It is filed as in vivo. Particulars: oral PI about 5.6 g/day.
The nature of series [4]: Effect of bile acids on absorption and transport of 3H-PI to the liver. Type of series: in vivo, Sprague Dawley rats. Particulars: 120 mg/kg 3H-PI by gavage with 50 mg/kg bile acid; liver 4 hours post-gavage. The protocol:
Pharmacokinetic studies were performed to determine if specific bile acids increase the absorption and transport of phosphatidylinositol (PI) to the liver. Sprague Dawley rats (300-350 g) were fasted overnight, followed by administration of 120 mg/kg ^3H-PI by gavage. 50 mg/kg of the bile acids deoxycholate or glycocholate were also incorporated into the gavage. Animals were euthanized after 4 hours post-gavage at which time liver samples were harvested. PI was extracted from the liver samples using the acidic Bligh and Dyer extraction method (Bligh, E. G.; Dyer, W. J. Can. J. Biochem. vol. 37: 911-917, 1959 and Honeyman, T. W. et al., Biochem J. vol. 212: 489-498, 1983). Radioactivity present in the organic phase was measured to determine the amount of PI that was transported to the liver.

For series [5] the following is noted: two pilot studies, children aged 4-19 years; cited from earlier work.
The test system of series [6] is HDL-C cholesterol. Particulars: 5.5% by weight of rat chow, approximately 4 g/Kg body weight; cited from earlier work.

Read-outs that look alike come from different tables or passages of the source.

On to `C[C@H](CCC(=O)O)[C@H]1CC[C@H]2[C@@H]3[C@H](O)C[C@@H]4C[C@H](O)CC[C@]4(C)[C@H]3CC[C@]12C` [chenodeoxycholate], for which the “increase in plasma apoA-I relative to PI alone” value in series [1] is listed as 2 fold.
Regarding `CC(C)c1c(C(=O)Nc2ccccc2)c(-c2ccccc2)c(-c2ccc(F)cc2)n1CC[C@@H](O)C[C@@H](O)CC(=O)O` [atorvastatin, reference compound], the “inhibition of cholesterol synthesis” value in series [2] (concentrations between 0.01 to 10 μM) is given as 45-65%.
Turning to phosphatidylinositol [PI], in series [3], the “increase in plasma HDL-C” value is recorded as about 20% and the “increase in plasma apoA-I” value is given as about 10%. Also, the “inhibition of cholesterol synthesis” value in series [2] (concentration of 11.7 μM) is listed as 50%.
`C[C@H](CCC(=O)NCC(=O)O)[C@H]1CC[C@H]2[C@@H]3[C@H](O)C[C@@H]4C[C@H](O)CC[C@]4(C)[C@H]3C[C@H](O)[C@]12C` [glycocholate]: the “increase in plasma apoA-I relative to PI alone” value in series [1] stood at 6.6 fold.
As to deoxycholate, the “increase of transport of PI to the liver” value in series [4] was 20%. Further, the “increase in plasma apoA-I relative to PI alone” value in series [1] amounted to 2 fold.
As to phosphatidylserine [PS], the “children with improved attention, behavior, learning performance and ameliorated negative mood” value in series [5] is 15 out of 20.
Turning to Bromelain, the “increase in plasma apoA-I relative to PI alone” value in series [1] came out at 5.4 fold.
Regarding “Phosphatidic acid [Phosphatidic acid (PA)]”, in series [6], the “increase of HDL-C cholesterol” value was “about 2 fold”.
`CCCCCCCCCCCCOS(=O)(=O)[O-].[Na+]` [sodium lauryl sulfate]: the “increase in plasma apoA-I relative to PI alone” value in series [1] was found to be 7.7 fold.
Still for that read-out and setting: for `CCCCCCCCCCCC(=O)[O-].[Na+]` [sodium laurate] the value was 3.7 fold.
